Results as given in US4397860A, “Benzodioxanyl imidazoline compounds, compositions and use” (Reckitt & Colman Products Limited, priority 1981, dated 1983).
Structures can show the parent of a compound that is named as a salt. Where two headings read alike, the source gives them in different places.

Key:
[1] = biological target: T1, pre-synaptic α2-adrenoreceptor (Mus musculus, UniProt Q01338); experiment: Pre-synaptic α2-adrenoreceptor agonist activity, mouse vas deferens (inhibition of twitch responses); design: key: I.A.: inactive; details: potency relative to clonidine = 1
T1 construct: from tissue; host or cells: mouse vas deferens
T1 sequence (Q01338 1-465): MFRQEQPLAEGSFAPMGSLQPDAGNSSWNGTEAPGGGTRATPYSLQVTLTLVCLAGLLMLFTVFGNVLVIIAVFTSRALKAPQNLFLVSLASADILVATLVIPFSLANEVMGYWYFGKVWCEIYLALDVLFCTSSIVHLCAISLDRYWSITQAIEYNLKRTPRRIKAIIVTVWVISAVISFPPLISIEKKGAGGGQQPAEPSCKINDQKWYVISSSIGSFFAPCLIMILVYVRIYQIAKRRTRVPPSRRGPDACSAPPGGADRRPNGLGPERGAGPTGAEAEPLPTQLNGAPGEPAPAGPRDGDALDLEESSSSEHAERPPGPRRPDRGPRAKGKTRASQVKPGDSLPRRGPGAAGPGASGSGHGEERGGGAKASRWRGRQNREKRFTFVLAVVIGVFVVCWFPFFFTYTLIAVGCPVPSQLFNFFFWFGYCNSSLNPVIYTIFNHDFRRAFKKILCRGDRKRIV
Procedure: The pharmacological activity of the compound of Example 1 (in formula I R^1 =methyl) has been compared with the activities of the isomeric compounds in which the methyl group is situated at differing positions in formula A. The procedures involved the measurement of agonist or antagonist activity at pre- and post-synaptic α-adrenoreceptors.
In the procedures outlined below agonist potency of the compounds was determined with respect to standard agents whereas antagonist potency was related to that of the compound of formula A. Pre- and post-synaptic studies were carried out in the mouse vas deferens and rat anococcygeus muscle respectively.
Pre-synaptic studies (α2)
The mouse vas deferens was stimulated at low frequency (0.1 Hz) and the "twitch" responses recorded. Pre-synaptic α2 -adrenoreceptor agonist activity was determined by assessing the ability of compounds to inhibit these contractions. When inhibition was seen the potency of the individual compounds was related to that of the standard α2 -adrenoreceptor agonist clonidine.

[2] = biological target: T2, postsynaptic α1-adrenoreceptor (Rattus norvegicus, UniProt P43140); experiment: Post-synaptic α1-adrenoreceptor agonist activity, rat anococcygeus muscle (contractions); design: key: I.A.: inactive; details: potency relative to phenylephrine = 1
T2 construct: the rat anococcygeus muscle is used to establish postsynaptic α1 -adrenoreceptor activity; from tissue; host or cells: rat anococcygeus muscle
T2 sequence (P43140 1-466): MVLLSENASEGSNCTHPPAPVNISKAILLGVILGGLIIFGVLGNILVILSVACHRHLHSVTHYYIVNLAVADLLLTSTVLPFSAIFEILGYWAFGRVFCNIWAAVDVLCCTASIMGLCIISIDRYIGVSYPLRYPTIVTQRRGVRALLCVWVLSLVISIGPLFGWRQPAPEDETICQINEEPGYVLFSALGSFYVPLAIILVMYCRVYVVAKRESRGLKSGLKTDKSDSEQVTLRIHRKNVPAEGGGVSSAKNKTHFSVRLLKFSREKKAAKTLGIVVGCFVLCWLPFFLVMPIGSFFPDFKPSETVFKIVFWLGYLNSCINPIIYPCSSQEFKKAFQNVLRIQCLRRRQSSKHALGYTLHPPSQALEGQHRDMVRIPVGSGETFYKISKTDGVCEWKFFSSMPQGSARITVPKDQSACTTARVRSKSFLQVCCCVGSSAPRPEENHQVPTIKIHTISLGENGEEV

[3] = biological target: T2, postsynaptic α1-adrenoreceptor; experiment: Post-synaptic α1-adrenoreceptor antagonist activity, rat anococcygeus muscle (noradrenaline-induced contractions)
[4] = test system: pre-synaptic α2-adrenoreceptor; experiment: Pre-synaptic α2-adrenoreceptor antagonist activity, mouse vas deferens (reversal of clonidine inhibition); details: for α2/α1 selectivity: selectivity relative to the compound of formula A, mouse vas deferens / rat anococcygeus
Procedure: In the antagonist studies the same experimental conditions were used except that the twitch response was suppressed by including clonidine (30 ng/ml) in the physiological solution.

[5] = test system: presynaptic α2-adrenoreceptors; details: from G.B. 2,068,376A / U.S. Ser. No. 230,195; cited from earlier work
[6] = biological target: T2, postsynaptic α1-adrenoreceptor; experiment: Postsynaptic α1-adrenoreceptor antagonism vs noradrenaline contractions, isolated rat anococcygeus muscle; details: mean of minimum 5 experiments, read-out: Postsynaptic antagonism pA2 vs Noradrenaline (anococcygeus) (converted)
[7] = rat anococcygeus muscle vs noradrenaline, dose-ratio of 2, […]

Cc1cccc2c1OCC(C1=NCCN1)O2 (stereo not drawn) [Example 5-methyl]
α2 potency: Agonism [1]: 0.1
α1 potency: Agonism [2]: 1.0
α1 potency: Antagonism (result in words) ([3]; rat anococcygeus muscle vs noradrenaline, 20ng/ml): Potentiation

Cc1ccc2c(c1)OCC(C1=NCCN1)O2 (stereo not drawn) [Example 6-methyl]
α2 potency: Agonism [1]: I.A.
α2/α1 selectivity [4]: 0.7
α1 potency: Agonism [2]: I.A.
α1 potency: Antagonism [3, 7]: < 0.11

c1ccc2c(c1)OCC(C1=NCCN1)O2 (stereo not drawn) [formula A, 2-[2-(1,4-benzodioxanyl)]-2-imidazoline]
selectivity in blocking presynaptic α2-adrenoreceptors (in words) [5]: high degree of selectivity in blocking presynaptic α2 -adrenoreceptors

CC1(C2=NCCN2)COc2ccccc2O1 (stereo not drawn) [Example 1, 2-[2-(2-Methyl-1,4-benzodioxanyl)]-2-imidazoline hydrochloride]
Kb [6]: 2510 nM
α2 potency: Agonism [1]: I.A.
selectivity relative to the compound of formula A (in words) ([4]; Table 3): rather more than twice as selective as the compound of formula A
α2/α1 selectivity [4]: 2.4
α1 potency: Agonism [2]: I.A.
α1 potency: Antagonism [3, 7]: 0.28

Cc1ccc2c(c1)OC(C1=NCCN1)CO2 (stereo not drawn) [Example 7-methyl]
α2 potency: Agonism [1]: I.A.
α2/α1 selectivity [4]: 0.64
α1 potency: Agonism [2]: 0.004
α1 potency: Antagonism [3, 7]: 0.125

CC1Oc2ccccc2OC1C1=NCCN1 (stereo not drawn) [Example 3-methyl]
α2 potency: Agonism [1]: I.A.
α1 potency: Agonism [2]: I.A.
α1 potency: Antagonism [3, 7]: < 0.023

Cc1cccc2c1OC(C1=NCCN1)CO2 (stereo not drawn) [Example 8-methyl]
α2 potency: Agonism [1]: 0.01
α1 potency: Agonism [2]: 2.1

CN1CCN=C1C1COc2ccccc2O1 (stereo not drawn) [3^1 -methyl]
α2 potency: Agonism [1]: I.A.
α2/α1 selectivity [4]: 0.003
α1 potency: Agonism [2]: I.A.
α1 potency: Antagonism [3]: 1.0
